{"source": "patent US10584115B2", "about": "“Substituted pyridine and pyrazine BMI-1 inhibitors” (PTC Therapeutics, Inc., priority 2013, dated 2020)", "data": [{"tested_on": "Bmi-1 protein", "assay": "Sandwich ELISA Assay (Bmi-1 protein level in HT-1080 cells after compound treatment)", "format": "cell-based", "settings": "Table 1, Bmi-1 sandwich ELISA, read-out: ELISA EC50 value for Bmi-1 protein", "method_in_brief": "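Sandwich ELISA quantified Bmi-1 protein against recombinant standard (125–8000 pg/mL), with lysates captured overnight at 4 °C and signal by HRP/TMB at 450 nm (570 nm reference). Lysates came from HT-1080 cells incubated 40–48 h with test compounds in 0.5% DMSO.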", "units": {"EC50": "nM"}, "values": [{"smiles": "[O-][n+]1cc(Nc2ccc(OC(F)F)cc2)nc(-n2c(C3CC3)nc3cc(F)c(F)cc32)c1", "note": "[compound 530, 6-(2-cyclopropyl-5,6-difluoro-1H-benzimidazol-1-yl)-N-[4-(difluoromethoxy)phenyl]pyrazin-2-amine 4-oxide]", "EC50": "10 to 100"}, {"smiles": "Cc1nc2ccccc2n1-c1c[n+]([O-])cc(Nc2ccc(OC(F)F)cc2)n1", "note": "[compound 531, N-[4-(difluoromethoxy)phenyl]-6-(2-methyl-1H-benzimidazol-1-yl)pyrazin-2-amine 4-oxide]", "EC50": "10 to 100"}, {"smiles": "Cc1nc2ccc(F)cc2n1-c1c[n+]([O-])cc(Nc2ccc(C(F)(F)F)cc2)n1", "note": "[compound 532, 6-(6-fluoro-2-methyl-1H-benzimidazol-1-yl)-N-[4-(trifluoromethyl)phenyl]pyrazin-2-amine 4-oxide]", "EC50": "10 to 100"}, {"smiles": "[O-][n+]1cc(Nc2ccc(C(F)(F)F)cc2)nc(-n2c(C3CC3)nc3ncc(F)cc32)c1", "note": "[compound 533, 6-(2-cyclopropyl-6-fluoro-1H-imidazo[4,5-b]pyridin-1-yl)-N-[4-(trifluoromethyl)phenyl]pyrazin-2-amine 4-oxide]", "EC50": "10 to 100"}, {"smiles": "[O-][n+]1cc(Nc2ccc(C(F)(F)F)cc2)nc(-c2c(C(F)(F)F)nc3ccccn23)c1", "note": "[compound 534, 6-[2-(trifluoromethyl)imidazo[1,2-a]pyridin-3-yl]-N-[4-(trifluoromethyl)phenyl]pyrazin-2-amine 4-oxide]", "EC50": "10 to 100"}, {"smiles": "Cc1nn2ccc(F)cc2c1-c1cncc(Nc2ccc(C(F)(F)F)cc2)n1", "note": "[compound 537, 6-(5-fluoro-2-methylpyrazolo[1,5-a]pyridin-3-yl)-N-[4-(trifluoromethyl)phenyl]pyrazin-2-amine]", "EC50": "10 to 100"}, {"smiles": "[O-][n+]1cc(Nc2ccc(C(F)(F)F)cc2)nc(-c2c(C(F)(F)F)nc3ccc(F)cn23)c1", "note": "[compound 538, 6-[6-fluoro-2-(trifluoromethyl)imidazo[1,2-a]pyridin-3-yl]-N-[4-(trifluoromethyl)phenyl]pyrazin-2-amine 4-oxide]", "EC50": "1 to 10"}, {"smiles": "CCc1nn2ccc(Cl)cc2c1-c1cncc(Nc2ccc(C(F)(F)F)cc2)n1", "note": "[compound 539, 6-(5-chloro-2-ethylpyrazolo[1,5-a]pyridin-3-yl)-N-[4-(trifluoromethyl)phenyl]pyrazin-2-amine]", "EC50": "10 to 100"}, {"smiles": "Cc1nc2ncc(Cl)cc2n1-c1cncc(Nc2ccc(OC(F)F)cc2)n1", "note": "[compound 540, 6-(6-chloro-2-methyl-1H-imidazo[4,5-b]pyridin-1-yl)-N-[4-(difluoromethoxy)phenyl]pyrazin-2-amine]", "EC50": "< 1"}, {"smiles": "Cc1nc2ncc(Cl)cc2n1-c1cncc(Nc2ccc(OC(F)F)c(F)c2)n1", "note": "[compound 541, 6-(6-chloro-2-methyl-1H-imidazo[4,5-b]pyridin-1-yl)-N-[4-(difluoromethoxy)-3-fluorophenyl]pyrazin-2-amine]", "EC50": "1 to 10"}, {"smiles": "Cc1nc2ncc(Cl)cc2n1-c1cncc(Nc2ccc(OC(F)(F)F)cc2)n1", "note": "[compound 542, 6-(6-chloro-2-methyl-1H-imidazo[4,5-b]pyridin-1-yl)-N-[4-(trifluoromethoxy)phenyl]pyrazin-2-amine]", "EC50": "10 to 100"}, {"smiles": "CCc1nc2ncc(Cl)cc2n1-c1cncc(Nc2ccc(C(F)(F)F)cc2)n1", "note": "[compound 543, 6-(6-chloro-2-ethyl-1H-imidazo[4,5-b]pyridin-1-yl)-N-[4-(trifluoromethyl)phenyl]pyrazin-2-amine]", "EC50": "100 to 3000"}, {"smiles": "CCc1nc2ncc(Cl)cc2n1-c1cncc(Nc2ccc(OC(F)F)cc2)n1", "note": "[compound 544, 6-(6-chloro-2-ethyl-1H-imidazo[4,5-b]pyridin-1-yl)-N-[4-(difluoromethoxy)phenyl]pyrazin-2-amine]", "EC50": "< 1"}, {"smiles": "CCc1nc2ncc(Nc3ccc(OC(F)F)cc3)cc2n1-c1cncc(Nc2ccc(OC(F)F)cc2)n1", "note": "[compound 545, N-[4-(difluoromethoxy)phenyl]-1-(6-{[4-(difluoromethoxy)phenyl]amino}pyrazin-2-yl)-2-ethyl-1H-imidazo[4,5-b]pyridin-6-amine]", "EC50": "100 to 3000"}, {"smiles": "CCc1nc2ncc(Cl)cc2n1-c1cncc(Nc2ccc(OC(F)F)c(F)c2)n1", "note": "[compound 546, 6-(6-chloro-2-ethyl-1H-imidazo[4,5-b]pyridin-1-yl)-N-[4-(difluoromethoxy)-3-fluorophenyl]pyrazin-2-amine]", "EC50": "1 to 10"}, {"smiles": "Cc1nc2ncc(Nc3ccc(OC(F)F)cc3)cc2n1-c1cncc(Nc2ccc(OC(F)F)cc2)n1", "note": "[compound 547, N-[4-(difluoromethoxy)phenyl]-1-(6-{[4-(difluoromethoxy)phenyl]amino}pyrazin-2-yl)-2-methyl-1H-imidazo[4,5-b]pyridin-6-amine]", "EC50": "100 to 3000"}, {"smiles": "CCc1nc2ncc(Cl)cc2n1-c1cncc(Nc2ccc(OC(F)(F)F)cc2)n1", "note": "[compound 548, 6-(6-chloro-2-ethyl-1H-imidazo[4,5-b]pyridin-1-yl)-N-[4-(trifluoromethoxy)phenyl]pyrazin-2-amine]", "EC50": "10 to 100"}, {"smiles": "CCc1nc2ncc(Cl)cc2n1-c1cncc(Nc2ccccc2)n1", "note": "[compound 549]", "EC50": "100 to 3000"}, {"smiles": "CCc1nc2ncc(Nc3ccc(OC(F)F)c(F)c3)cc2n1-c1cncc(Nc2ccc(OC(F)F)c(F)c2)n1", "note": "[compound 550, N-[4-(difluoromethoxy)-3-fluorophenyl]-1-(6-{[4-(difluoromethoxy)-3-fluorophenyl]amino}pyrazin-2-yl)-2-ethyl-1H-imidazo[4,5-b]pyridin-6-amine]", "EC50": "100 to 3000"}, {"smiles": "COc1ccc(Nc2cncc(-n3c(C)nc4ccc(F)cc43)n2)cc1", "note": "[compound 553, 6-(6-fluoro-2-methyl-1H-benzimidazol-1-yl)-N-(4-methoxyphenyl)pyrazin-2-amine]", "EC50": "1 to 10"}, {"smiles": "Cc1nc2ccc(F)cc2n1-c1cncc(Nc2ccc(Cl)cc2)n1", "note": "[compound 554, N-(4-chlorophenyl)-6-(6-fluoro-2-methyl-1H-benzimidazol-1-yl)pyrazin-2-amine]", "EC50": "10 to 100"}, {"smiles": "COc1cccc(Nc2cncc(-n3c(C)nc4ccccc43)n2)c1", "note": "[compound 557, N-(3-methoxyphenyl)-6-(2-methyl-1H-benzimidazol-1-yl)pyrazin-2-amine]", "EC50": "100 to 3000"}, {"smiles": "COc1cccc(Nc2cncc(-n3c(C)nc4ccc(F)cc43)n2)c1", "note": "[compound 559, 6-(6-fluoro-2-methyl-1H-benzimidazol-1-yl)-N-(3-methoxyphenyl)pyrazin-2-amine]", "EC50": "100 to 3000"}, {"smiles": "COc1ccc(Nc2cncc(-n3c(C)nc4ccccc43)n2)cc1", "note": "[compound 561, N-(4-methoxyphenyl)-6-(2-methyl-1H-benzimidazol-1-yl)pyrazin-2-amine]", "EC50": "1 to 10"}, {"smiles": "Cc1ccc(Nc2cncc(-n3c(C)nc4ccccc43)n2)cc1", "note": "[compound 562, 6-(2-methyl-1H-benzimidazol-1-yl)-N-(4-methylphenyl)pyrazin-2-amine]", "EC50": "1 to 10"}, {"smiles": "Cc1ccc(Nc2cncc(-n3c(C)nc4ccccc43)n2)c(N)c1", "note": "[compound 563, 4-methyl-N^1-[6-(2-methyl-1H-benzimidazol-1-yl)pyrazin-2-yl]benzene-1,2-diamine]", "EC50": "10 to 100"}, {"smiles": "Cc1nn2ccccc2c1-c1cncc(Nc2ccccc2)n1", "note": "[compound 564, 6-(2-methylpyrazolo[1,5-a]pyridin-3-yl)-N-phenylpyrazin-2-amine]", "EC50": "100 to 3000"}, {"smiles": "COc1ccc(Nc2cncc(-c3c(C)nn4ccccc34)n2)cc1", "note": "[compound 565, N-(4-methoxyphenyl)-6-(2-methylpyrazolo[1,5-a]pyridin-3-yl)pyrazin-2-amine]", "EC50": "< 1"}, {"smiles": "Cc1ccc(Nc2cncc(-c3c(C)nn4ccccc34)n2)cc1", "note": "[compound 566, N-(4-methylphenyl)-6-(2-methylpyrazolo[1,5-a]pyridin-3-yl)pyrazin-2-amine]", "EC50": "1 to 10"}, {"smiles": "Cc1nn2ccccc2c1-c1cncc(Nc2ccc(Cl)cc2)n1", "note": "[compound 567, N-(4-chlorophenyl)-6-(2-methylpyrazolo[1,5-a]pyridin-3-yl)pyrazin-2-amine]", "EC50": "10 to 100"}, {"smiles": "Cc1nn2ccccc2c1-c1cncc(Nc2ccc(F)cc2)n1", "note": "[compound 568, N-(4-fluorophenyl)-6-(2-methylpyrazolo[1,5-a]pyridin-3-yl)pyrazin-2-amine]", "EC50": "100 to 3000"}, {"smiles": "COc1cccc(Nc2cncc(-c3c(C)nn4ccccc34)n2)c1", "note": "[compound 569, N-(3-methoxyphenyl)-6-(2-methylpyrazolo[1,5-a]pyridin-3-yl)pyrazin-2-amine]", "EC50": "10 to 100"}, {"smiles": "Cc1nn2ccccc2c1-c1cncc(Nc2cccc(Cl)c2)n1", "note": "[compound 570, N-(3-chlorophenyl)-6-(2-methylpyrazolo[1,5-a]pyridin-3-yl)pyrazin-2-amine]", "EC50": "100 to 3000"}, {"smiles": "Cc1nn2ccccc2c1-c1cncc(Nc2ccc(C#N)cc2)n1", "note": "[compound 571, 4-{[6-(2-methylpyrazolo[1,5-a]pyridin-3-yl)pyrazin-2-yl]amino}benzonitrile]", "EC50": "10 to 100"}, {"smiles": "COC(=O)c1ccc(Nc2cncc(-c3c(C)nn4ccccc34)n2)cc1", "note": "[compound 572, methyl 4-{[6-(2-methylpyrazolo[1,5-a]pyridin-3-yl)pyrazin-2-yl]amino}benzoate]", "EC50": "1 to 10"}, {"smiles": "COc1ccc(Nc2cncc(-n3c(C)nc4cc(F)c(F)cc43)n2)cc1", "note": "[compound 573, 6-(5,6-difluoro-2-methyl-1H-benzimidazol-1-yl)-N-(4-methoxyphenyl)pyrazin-2-amine]", "EC50": "100 to 3000"}, {"smiles": "Cc1ccc(Nc2cncc(-n3c(C)nc4cc(F)c(F)cc43)n2)cc1", "note": "[compound 574, 6-(5,6-difluoro-2-methyl-1H-benzimidazol-1-yl)-N-(4-methylphenyl)pyrazin-2-amine]", "EC50": "100 to 3000"}, {"smiles": "Cc1nc2cc(F)c(F)cc2n1-c1cncc(Nc2ccc(Cl)cc2)n1", "note": "[compound 575, N-(4-chlorophenyl)-6-(5,6-difluoro-2-methyl-1H-benzimidazol-1-yl)pyrazin-2-amine]", "EC50": "10 to 100"}, {"smiles": "COc1cc(C)ccc1Nc1cncc(-n2c(C)nc3ccccc32)n1", "note": "[compound 576, N-(2-methoxy-4-methylphenyl)-6-(2-methyl-1H-benzimidazol-1-yl)pyrazin-2-amine]", "EC50": "100 to 3000"}]}]}
